For one compound, Ki results are on record in PMC2954295 (Chemistry & Biology, 2010).

The target in one test is human HexB (Homo sapiens, UniProt P07686). Description: inhibition kinetics with pNP-GlcNAc substrate, Lineweaver-Burk. It is filed as biochemical.
The next test addresses T1, human OGA (O-GlcNAcase) (Homo sapiens, UniProt O60502).
T1 sequence (O60502 1-916): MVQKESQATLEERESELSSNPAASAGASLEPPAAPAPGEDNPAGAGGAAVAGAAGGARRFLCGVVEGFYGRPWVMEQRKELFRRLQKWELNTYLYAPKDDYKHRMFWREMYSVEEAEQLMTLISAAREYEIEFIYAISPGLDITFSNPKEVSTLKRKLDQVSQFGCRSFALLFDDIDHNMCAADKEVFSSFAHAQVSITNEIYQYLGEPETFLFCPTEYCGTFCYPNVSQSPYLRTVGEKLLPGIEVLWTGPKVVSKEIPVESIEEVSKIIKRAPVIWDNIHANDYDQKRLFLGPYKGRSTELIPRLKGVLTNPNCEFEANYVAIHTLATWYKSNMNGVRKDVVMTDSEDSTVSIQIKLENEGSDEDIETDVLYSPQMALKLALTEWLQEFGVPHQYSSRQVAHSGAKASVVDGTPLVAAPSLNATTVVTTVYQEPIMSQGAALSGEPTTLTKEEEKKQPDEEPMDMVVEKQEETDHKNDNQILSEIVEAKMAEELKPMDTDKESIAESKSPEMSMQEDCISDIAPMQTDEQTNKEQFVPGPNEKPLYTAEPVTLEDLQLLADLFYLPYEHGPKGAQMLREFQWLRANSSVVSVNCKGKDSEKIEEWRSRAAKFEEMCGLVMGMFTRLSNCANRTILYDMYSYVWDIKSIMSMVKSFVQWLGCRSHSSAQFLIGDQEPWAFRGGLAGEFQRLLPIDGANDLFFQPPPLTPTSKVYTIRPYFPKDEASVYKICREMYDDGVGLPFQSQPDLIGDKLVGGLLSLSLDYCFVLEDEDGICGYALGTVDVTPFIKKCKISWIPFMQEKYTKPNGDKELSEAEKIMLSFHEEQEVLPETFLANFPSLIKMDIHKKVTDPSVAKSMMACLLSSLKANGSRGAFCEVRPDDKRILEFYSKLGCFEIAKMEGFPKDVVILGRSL
As to the kind of experiment: continuous UV/Vis assay with pNP-GlcNAc substrate, recombinant enzyme. It is filed as biochemical.

Sequence of human HexB (P07686 122-311): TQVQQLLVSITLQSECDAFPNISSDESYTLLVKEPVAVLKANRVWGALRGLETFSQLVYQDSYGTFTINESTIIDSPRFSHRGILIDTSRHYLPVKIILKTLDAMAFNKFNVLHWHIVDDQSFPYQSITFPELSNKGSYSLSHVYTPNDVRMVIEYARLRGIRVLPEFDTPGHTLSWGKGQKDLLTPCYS
Sequence of human HexB (P07686 315-556): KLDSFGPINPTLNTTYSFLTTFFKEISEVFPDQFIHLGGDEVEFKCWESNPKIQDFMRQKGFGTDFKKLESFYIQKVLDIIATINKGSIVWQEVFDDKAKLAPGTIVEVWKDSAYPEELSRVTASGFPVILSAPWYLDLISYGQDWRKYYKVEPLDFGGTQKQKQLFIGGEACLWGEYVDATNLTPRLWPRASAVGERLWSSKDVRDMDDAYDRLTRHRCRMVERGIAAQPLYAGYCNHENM

Turning to `CC(=O)N[C@H]1CN2CC[C@H](O)[C@@H]2[C@@H](O)[C@@H]1O` [6-Ac-Cas], the results for the Ki at human HexB and at human OGA (O-GlcNAcase) were 250 nM and 300 nM, respectively.
